According to patent US4053580A, “Microsealed pharmaceutical delivery device” (G. D. Searle & Co., priority 1975, dated 1977):

Tests used:
Type in all cases: physicochemical
[1] = Solubility of pharmaceutical (Cl) in hydrophilic solvent system at 37° C, 24 h shaking; settings: organic solvent or mixture
Experimental: Solubility of a pharmaceutical (Cl) is measured by constant shaking for 24 hours an excess amount of powdered pharmaceutical in 10 ml. of a hydrophilic solvent system at 37° C. The solution is filtered and the content of the pharmaceutical is measured.
(§1) Table I is illustrative of the relation between Cl, Kb, release rate, and kinetics of release of 17α-ethynyl-4-estrene-3β,17β-diol 3,17-diacetate (ethynodiol diacetate) in a hydrophilic solvent system of polyethylene glycol having a molecular weight of about 400.

[2] = Release of pharmaceutical from microsealed silicone delivery device (release rate and kinetics); settings: device: 2 parts drug in 2 parts 40% PEG (MW 380-420) in water, Silastic 382 matrix, Silastic tubing
Source text: amount of pharmaceutical released decreases with time and Q - t
Those skilled in the pharmaceutical arts will know how to determine toxic levels of a given pharmaceutical, and the minimum effective dose. With this information a proper dosage form can be prepared by measuring the in vivo rate of elution of a given pharmaceutical by standard analytic tecniques e.g. spectroscopic or radio immunoassay analysis. In vitro diffusion of the pharmaceutical from a delivery device may be determined by the methods of Chien and Lambert, J. Pharm. Sci., 63, 365 (1974) or by methods described in U.S. Pat. No. 3,710,795.
A biologically acceptable silicone polymer matrix containing a pharmaceutical in a hydrophilic solvent system is prepared as follows: […] of ethynodiol diacetate at 37° C. by vigorous agitation for 10 minutes. To this mixture is added 6 parts of liquid silicone polymer of the formula [drawing 5] sold as Silastic® Medical Grade 382 Elastomer by Dow-Corning and this combination is stirred with a mechanical mixer at 1000 rpm for 28 minutes. 0.015 Parts of a cross-linking agent (stannous octanoate is added to the combination and stirring is continued for 2 minutes. The combination is placed in a silicone rubber tubing (I.D. 3.18mm, 0.D. 6.35mm sold by Dow-Corning as Medical Grade Silastic Tubing No. 601-365). This tubing is a silicone polymer of the formula The system is allowed to cross-link for 1 hour and then the tubing is sectioned to provide pharmaceutical delivery devices with the desired amount of pharmaceutical. The ends of the sections may be sealed or left open and additional openings may be made in the walls of the tubing to facilitate higher but still constant rates of release. This device releases 315.6 mcg/cm^2 /day of ethynodiol diacetate. Replacement of the ethynodiol diacetate with 2 parts of one of the following pharmaceuticals provides the indicated release rate: […]

[3] = as above; settings: for Kinetics of release: Q - t = partition controlled, constant release independent of time
[4] = Partition coefficient (Kb) between hydrophilic solvent system and silicone polymer matrix
Experimental: Partition coefficient K(b) is measured by immersing a known surface area of biologically acceptable silicone polymer matrix material in a solution of the pharmaceutical in the hydrophilic solvent system with constant shaking for 24 hours and then measuring the amount of pharmaceutical remaining in the solvent system.
Ci = initial concentration of pharmaceutical
Cl = Equilibrium concentration of pharmaceutical
as §1

C#C[C@]1(OC(C)=O)CC[C@H]2[C@@H]3CCC4=C[C@@H](OC(C)=O)CC[C@@H]4[C@H]3CC[C@@]21C [ethynodiol diacetate, 17α-ethynyl-4-estrene-3β,17β-diol 3,17-diacetate]
solubility at 24 h ([1]; 30% PEG 400, 37° C): 64.6 µg/mL
solubility at 24 h ([1]; 50% PEG 400, 37° C): 156 µg/mL
solubility at 24 h ([1]; 60% PEG 400, 37° C): 437 µg/mL
solubility at 24 h ([1]; 80% PEG 400, 37° C): 4460 µg/mL
solubility at 24 h ([1]; 100% PEG 400, 37° C): 45600 µg/mL
Release rate [2]: 315.6 mcg/cm^2 /day
Release rate time dependence with alternative solvent systems ([3]; 1,3-butanediol, propylene glycol, PEG 4000, PEG 6000, Solketal, Medical Fluid 360 solvent systems): independent of time
Release from devices with alternative solvent systems ([3]; 1,3-butanediol, propylene glycol, PEG 4000, PEG 6000, Solketal, Medical Fluid 360 solvent systems, prepared as for PEG 400): 150 - 275 mcg/cm^2
Rate of Pharmaceutical Release ([3]; 30% PEG 400): 297.8 gm/10^6 cm^2/day
Kinetics of release ([3]; 30% PEG 400): Q - t
Rate of Pharmaceutical Release ([3]; 50% PEG 400): 315.6 gm/10^6 cm^2/day
Kinetics of release ([3]; 50% PEG 400): Q - t
Rate of Pharmaceutical Release ([3]; 60% PEG 400): 319.4 gm/10^6 cm^2/day
Kinetics of release ([3]; 60% PEG 400): Q - t
Rate of Pharmaceutical Release ([3]; 80% PEG 400): 1203 gm/10^6 cm^2/day^1/2
Rate of Pharmaceutical Release ([3]; 100% PEG 400): 1095 gm/10^6 cm^2/day^1/2
Release rate from silicone rubber implantates, relation to time ([3]; in the absence of microsealed compartments containing a suitable hydrophilic solvent): porportional to the square root of time (T^1/2)
Kb/Cl ([4]; 30% PEG 400): 0.355 mL/µg
Kb/Cl ([4]; 50% PEG 400): 0.061 mL/µg
Kb/Cl ([4]; 60% PEG 400): 0.0078 mL/µg
Kb/Cl ([4]; 80% PEG 400): 7.4e-05 mL/µg
Kb/Cl ([4]; 100% PEG 400): 7e-07 mL/µg

CC(=O)OCC(=O)[C@H]1CC[C@H]2[C@@H]3CCC4=CC(=O)CC[C@]4(C)[C@H]3CC[C@]12C [Desoxycorticosterone acetate]
Release rate [2]: 55.1 mcg/cm^2 /day

Cc1ncc([N+](=O)[O-])n1CCO [metronidazole]
Release rate [2]: 4.23 mcg/cm^2 /day

COC(=O)C1CC2=CC(=O)CCC2(C)C2CCC3(C)C(CCC34CCC(=O)O4)C12 (stereo not drawn) [17-hydroxy-7β-methoxycarbonyl-3-oxo-17α-pregn-4-ene-21-carboxylic acid γ-lactone]
Release rate [2]: 63.08 mcg/cm^2 /day

CC(=O)O[C@]1(C(C)=O)CC[C@H]2[C@@H]3CCC4=CC(=O)CC[C@@H]4[C@H]3[C@@H](C)C[C@@]21C [17α-acetoxy-11β-methyl-19-norpregn-4-ene-3,20-dione]
Release rate [2]: 51.89 mcg/cm^2 /day

CC(=O)S[C@@H]1CC2=CC(=O)CC[C@]2(C)[C@H]2CC[C@@]3(C)[C@@H](CC[C@@]34CCC(=O)O4)[C@H]12 [7α-acetylthio-17α-(2-carboxyethyl)-17β-hydroxyandrost-4-en-3-one lactone]
Release rate [2]: 18.25 mcg/cm^2 /day
